{"source": "patent US20090227606A1", "about": "“Methods for Preventing or Treating Acute and Chronic Pain” (priority 2006, published 2009)", "key": {"GLAST mRNA": {"tested_on": "GLAST mRNA", "assay": "Real Time RT-PCR of cultured astrocytes, GLAST mRNA", "type": "cell-based, rat", "protocol": "(§1) After approximately 14 days (2 days after subplating into plates, DIV 14) astrocytes had formed a confluent monolayer. […] Phase contrast microscopy was then carried out in order to assess the morphology of cells after the various treatments. Length of astrocyte processes was quantified by measuring all processes in 2-3 phase contrast images/group by an independent observer, blinded to the treatment groups using Image J v1.34s (National Institutes of Health, Bethesda, Md.).\nTotal RNA was isolated from astrocyte cultures using the Qiagen RNeasy mini-kit (Qiagen Inc., Valencia, Calif.) according to the manufacturer's protocol for isolation of total RNA from animal cells. Reverse transcription (RT) was carried out using the high-capacity cDNA archive kit (Applied Biosystems, Foster City, Calif.) according to the vendor's protocol. Real-time RT-PCR reactions were carried out in a total reaction volume of 25 μL containing a final concentration of 1.5 U Platinum Taq DNA polymerase (Invitrogen Corporation, Carlsbad, Calif.); 20 mM Tris HCl (pH 8.4); 50 mM KCl; 3 mM MgCl2; 200 μM dGTP, dCTP, and dATP; 400 μM dUTP and 1 U of UDG (uracyl DNA glycosylase); 900 nM of forward and reverse primers; 300 nM Taqman probe; and 5 μL of cDNA (50 ng) from the RT step. The iCycler™ Multicolor Real-Time PCR detection system (Bio-Rad Laboratories, Hercules, Calif.) was used to quantify PCR product. The fluorescence and threshold values (CT) obtained were used to compare the relative amount of target mRNA in experimental groups to those of controls using the 2^−ΔΔC^T method (Livak, K. J. and T. D. Schmittgen. 2001. Methods 25:402-408). Each experiment was run twice and samples were run in duplicate. For each sample, the mean CT value for the control gene (GAPDH) was then subtracted from the mean CT value for the gene of interest (GLT-1, GLAST) to obtain a ΔCT value. […] The relative fold change from control was then expressed by calculation of 2^−ΔΔC^T for each sample and the results are expressed as the group mean fold change±SEM."}, "GLT-1": {"tested_on": "GLT-1", "assay": "Immunocytochemistry of cultured astrocytes, GLT-1 staining", "type": "cell-based, rat", "conditions": "treated astrocytes", "protocol": "(§2) Primary astrocyte-enriched cultures were plated onto sterile 18 mm glass coverslips. After three washes in PBS, cells were permeabilized in 5% glacial acetic acid/95% ethanol (acid-alcohol) for 10 minutes. After washing, cells were incubated in a 1% normal goat serum for 30 minutes and then overnight at 4° C. in primary mouse anti-GFAP (1:500), rabbit anti-GLT-1 (1:500) or guinea pig anti-GLAST (1:2000). The following day, cells were washed and then incubated for 2 hours at room temperature with goat anti-mouse Alexa Fluor™-555 (Invitrogen Corporation, Carlsbad, Calif.) goat anti-guinea pig Alexa Fluor™-488 (Invitrogen Corporation, Carlsbad, Calif.) or goat anti-rabbit Alexa Fluor™-488 (Invitrogen Corporation, Carlsbad, Calif.; all at 1:250). Finally, cells were post-fixed in acid-alcohol and mounted with Vectashield (Vector Labs, Burlingame, Calif.) containing 4′,6-diamidino-2-phenylindole dihydrochloride hydrate (DAPI, Sigma Chemical Co., St Louis, Mo.), in order to visualize cell nuclei. The sections were examined with a fluorescence microscope, and images were captured with a Q-Fire cooled camera (Olympus, Melville, N.Y.). Confocal microscopy was also performed using a Zeiss LSM 510 Meta confocal microscope (Carl Zeiss AG, Oberkochen, Germany). Merged color images were processed using Adobe Photoshop 7.0 (Adobe Systems, San Jose, Calif.)."}, "[1]": {"tested_on": "L5 spinal nerve transected rats", "assay": "Mechanical allodynia after L5 spinal nerve transection in rats", "type": "in vivo, rat", "protocol": "Male Sprague Dawley rats (Harlan, Indianapolis, Ind.) weighing 150-175 g at the start of surgery were housed individually and maintained in a 12:12 light/dark cycle with ad libitum access to food and water. The animals were allowed to habituate to the housing facilities for 1 week before experiments began. Behavioral studies were performed in a quiet room between the hours of 7:00 and 10:00 A.M. The Institutional Animal Care and Use Committee at Dartmouth College approved all procedures in this study. Efforts were made to limit animal distress and use the minimum number of animals necessary to achieve statistical significance, in accord with guidelines set forth by the International Association for the Study of Pain.\nUnilateral mononeuropathy was produced according to the method described by Colburn et al. (1999. Exp. Neurol. 157:289-304). Briefly, rats were anesthetized by inhalation of halothane in an O2 carrier (induction, 4%; maintenance, 2%). […] The L6 transverse process was partially removed, exposing the L4 and L5 spinal nerves. The L5 spinal nerve was identified, separated, lifted, and transected, followed by removal of a 3-mm distal segment of nerve to prevent reconnection. […]\nMechanical sensitivity to non-noxious stimuli was measured by applying 2 g and 12 g von Frey filaments (Stoelting, Wood Dale, Ill.) to the plantar surface of the ipsilateral hind paw (n=8-12/group). […]"}, "[2]": {"tested_on": "cyclic-adenosine-5′,3′-monophosphate (cAMP)-specific phosphodiesterase (PDE IV)", "conditions": "literature; cited from earlier work"}, "MIP-2 (CXCL2)": {"tested_on": "MIP-2 (CXCL2)", "assay": "ELISA of MIP-2 release from cultured astrocytes", "type": "cell-based, rat", "conditions": "seven days, LPS 1 μg/ml; propentofylline 1000 μM; db-cAMP 250 μM", "protocol": "as §1\nStandard ELISA was performed for quantitative determination of MCP-1 and MIP-2 protein in cell culture supernatant. Assays were carried out according to the manufacturer's specifications (Biosource, Camarillo, Calif.) using the sandwich enzyme immunoassay procedure. Optical density at 450 nm was obtained using the MRX Revelations program (Dynex Technologies, Chantilly, Va.) and relative protein concentrations were determined by comparing samples to the standard curve generated."}, "GLAST": {"tested_on": "GLAST", "assay": "Immunocytochemistry of cultured astrocytes, GLAST staining", "type": "cell-based, rat", "conditions": "treated astrocytes", "protocol": "as §2"}, "[3]": {"tested_on": "L5 spinal nerve transection", "conditions": "systemically or intrathecally administered; Sweitzer et al. 2001; cited from earlier work"}, "GLT-1 mRNA": {"tested_on": "GLT-1 mRNA", "assay": "Real Time RT-PCR of cultured astrocytes, GLT-1 mRNA", "type": "cell-based, rat", "protocol": "as §1\nTotal RNA was isolated from astrocyte cultures using the Qiagen RNeasy mini-kit (Qiagen Inc., Valencia, Calif.) according to the manufacturer's protocol for isolation of total RNA from animal cells. Reverse transcription (RT) was carried out using the high-capacity cDNA archive kit (Applied Biosystems, Foster City, Calif.) according to the vendor's protocol. Real-time RT-PCR reactions were carried out in a total reaction volume of 25 μL containing a final concentration of 1.5 U Platinum Taq DNA polymerase (Invitrogen Corporation, Carlsbad, Calif.); 20 mM Tris HCl (pH 8.4); 50 mM KCl; 3 mM MgCl2; 200 μM dGTP, dCTP, and dATP; 400 μM dUTP and 1 U of UDG (uracyl DNA glycosylase); 900 nM of forward and reverse primers; 300 nM Taqman probe; and 5 μL of cDNA (50 ng) from the RT step. The iCycler™ Multicolor Real-Time PCR detection system (Bio-Rad Laboratories, Hercules, Calif.) was used to quantify PCR product. The fluorescence and threshold values (CT) obtained were used to compare the relative amount of target mRNA in experimental groups to those of controls using the 2^−ΔΔC^T method (Livak, K. J. and T. D. Schmittgen. 2001. Methods 25:402-408). Each experiment was run twice and samples were run in duplicate. For each sample, the mean CT value for the control gene (GAPDH) was then subtracted from the mean CT value for the gene of interest (GLT-1, GLAST) to obtain a ΔCT value. The ΔCT values for the control group (untreated) were then averaged and subtracted from the ΔCT for the experimental groups to obtain the ΔΔCT. The relative fold change from control was then expressed by calculation of 2^−ΔΔC^T for each sample and the results are expressed as the group mean fold change±SEM."}, "[4]": {"conditions": "propentofylline 10, 100, 1000 μM, db-cAMP 250 μM, relative to GAPDH"}}, "note": "Entries after “also recorded” stand apart in the source; their conditions may differ."}
{"smiles": "CCCn1cnc2c1c(=O)n(CCCCC(C)=O)c(=O)n2C", "note": "[propentofylline]", "values": [{"measurement": "increase in GLAST mRNA", "setting": "GLAST mRNA; both days 3 and 7", "result": "1.5-2 fold"}, {"measurement": "GLAST mRNA level, in words", "setting": "GLAST mRNA; [4]", "result": "enhancement of GLT-1 and GLAST mRNA levels in a dose-dependent manner; also recorded: dose-dependently induced GLT-1 and GLAST at the mRNA level"}, {"measurement": "GLT-1 staining", "setting": "GLT-1", "result": "concomitant increase in GLT-1 staining"}, {"measurement": "mechanical allodynia (paw withdrawals to 12 g von Frey filament)", "setting": "[1]; 10 μg daily via lumbar puncture, from one hour prior to transection, vs. L5 saline", "result": "significant decrease in mechanical allodynia; also recorded: robustly inhibited the development of mechanical allodynia at all time points tested"}, {"measurement": "mechanical allodynia compared with normal group", "setting": "[1]; from day 5 onward (day 5, 7, 9 and 12), P>0.05", "result": "no longer discernable from the normal group"}, {"measurement": "PDE IV", "setting": "[2]", "result": "inhibit"}, {"measurement": "LPS-induced MIP-2 (CXCL2) release", "setting": "MIP-2 (CXCL2)", "result": "reversed by co-treatment with propentofylline; also recorded: significantly attenuated"}, {"measurement": "GLAST staining", "setting": "GLAST", "result": "slightly increased GLAST staining"}, {"measurement": "mechanical allodynia induced by L5 spinal nerve transection", "setting": "[3]", "result": "exhibits anti-allodynic properties; also recorded: attenuated mechanical allodynia"}, {"measurement": "increase in GLT-1 mRNA", "setting": "GLT-1 mRNA; day 3, high dose", "result": 3, "unit": "fold"}, {"measurement": "induction of GLT-1 mRNA", "setting": "GLT-1 mRNA; day 7, high dose", "result": 20, "unit": "fold"}, {"measurement": "GLT-1 mRNA level, in words", "setting": "GLT-1 mRNA; [4]", "result": "enhancement of GLT-1 and GLAST mRNA levels in a dose-dependent manner; also recorded: dose-dependently induced GLT-1 and GLAST at the mRNA level"}]}
